Measured values as given in patent publication US10464947B2 (Incyte Corporation, priority 2013, dated 2019).
Where two headings read alike, the source gives them in different places.

Tested on: KMS.12.BM cells
Assay: KMS.12.BM Cell Viability Assay (Example B1)
Type: cell-based, human
Conditions: Homo sapiens, 72 h, 3 days, Cell Titer-GLO, read-out: KMS cellular IC50
How it was run: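 KMS.12.BM human myeloma cells, 5000 cells/well in RPMI with 10% FBS, exposed to a compound concentration range for 3 days. Viable cells measured by ATP-based Cell Titer-GLO luminescence after 10 min at room temperature.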

Row | SMILES | IC50 [nM] | IC50 (KMS-12-BM) [nM]
1 | Cc1noc(C)c1-c1ccc2nc(N3CCNC(=O)C3)n3c2c1OC[C@@H]3c1ccccn1 [Example 172, 4-[(4S)-7-(3,5-dimethylisoxazol-4-yl)-4-pyridin-2-yl-4,5-dihydroimidazo[1,5,4-de][1,4]benzoxazin-2-yl]piperazin-2-one] | < 1000 | –
2 | Cc1noc(C)c1-c1ccc2nc(N3CCN(S(C)(=O)=O)CC3)n3c2c1OC[C@@H]3c1ccccn1 [Example 173, (4S)-7-(3,5-dimethylisoxazol-4-yl)-2-[4-(methylsulfonyl)piperazin-1-yl]-4-pyridin-2-yl-4,5-dihydroimidazo[1,5,4-de][1,4]benzoxazine] | < 1000 | –
3 | Cc1noc(C)c1-c1ccc2nc(N3CCN(C(C)C)CC3)n3c2c1OC[C@@H]3c1ccccn1 [Example 174, (4S)-7-(3,5-dimethylisoxazol-4-yl)-2-(4-isopropylpiperazin-1-yl)-4-pyridin-2-yl-4,5-dihydroimidazo[1,5,4-de][1,4]benzoxazine] | < 1000 | –
4 | Cc1noc(C)c1-c1ccc2nc(N3CCC(C#N)CC3)n3c2c1OC[C@@H]3c1ccccn1 [Example 175, 1-[(4S)-7-(3,5-dimethylisoxazol-4-yl)-4-pyridin-2-yl-4,5-dihydroimidazo[1,5,4-de][1,4]benzoxazin-2-yl]piperidine-4-carbonitrile] | < 1000 | –
5 | Cc1noc(C)c1-c1ccc2nc(N3CCC(CO)CC3)n3c2c1OC[C@@H]3c1ccccn1 [Example 176, {1-[(4S)-7-(3,5-dimethylisoxazol-4-yl)-4-pyridin-2-yl-4,5-dihydroimidazo[1,5,4-de][1,4]benzoxazin-2-yl]piperidin-4-yl}methanol] | < 1000 | –
6 | Cc1noc(C)c1-c1ccc2nc(N3CCN(CCO)CC3)n3c2c1OC[C@@H]3c1ccccn1 [Example 177, 2-{4-[(4S)-7-(3,5-dimethylisoxazol-4-yl)-4-pyridin-2-yl-4,5-dihydroimidazo[1,5,4-de][1,4]benzoxazin-2-yl]piperazin-1-yl}ethanol] | < 1000 | –
7 | Cc1noc(C)c1-c1ccc2nc(N3CCN(c4ccccc4)CC3)n3c2c1OC[C@@H]3c1ccccn1 [Example 178, (4S)-7-(3,5-dimethylisoxazol-4-yl)-2-(4-phenylpiperazin-1-yl)-4-pyridin-2-yl-4,5-dihydroimidazo[1,5,4-de][1,4]benzoxazine] | < 1000 | –
8 | Cc1noc(C)c1-c1ccc2nc(N3CCN(Cc4ccccc4)CC3)n3c2c1OC[C@@H]3c1ccccn1 [Example 179, (4S)-2-(4-benzylpiperazin-1-yl)-7-(3,5-dimethylisoxazol-4-yl)-4-pyridin-2-yl-4,5-dihydroimidazo[1,5,4-de][1,4]benzoxazine] | < 1000 | –
9 | Cc1noc(C)c1-c1ccc2nc(N3CC[C@@H](N(C)C)C3)n3c2c1OC[C@@H]3c1ccccn1 [Example 180A, (3R)-1-[(4S)-7-(3,5-dimethylisoxazol-4-yl)-4-pyridin-2-yl-4,5-dihydroimidazo[1,5,4-de][1,4]benzoxazin-2-yl]-N,N-dimethylpyrrolidin-3-amine] | < 1000 | –
10 | Cc1noc(C)c1-c1ccc2nc(N3CC[C@H](N(C)C)C3)n3c2c1OC[C@@H]3c1ccccn1 [Example 180B, (3S)-1-[(4S)-7-(3,5-dimethylisoxazol-4-yl)-4-pyridin-2-yl-4,5-dihydroimidazo[1,5,4-de][1,4]benzoxazin-2-yl]-N,N-dimethylpyrrolidin-3-amine] | < 1000 | –
11 | CN[C@@H]1CCN(c2nc3ccc(-c4c(C)noc4C)c4c3n2[C@@H](c2ccccn2)CO4)C1 [Example 181A, (3R)-1-[(4S)-7-(3,5-dimethylisoxazol-4-yl)-4-pyridin-2-yl-4,5-dihydroimidazo[1,5,4-de][1,4]benzoxazin-2-yl]-N-methylpyrrolidin-3-amine] | < 1000 | –
12 | CN[C@H]1CCN(c2nc3ccc(-c4c(C)noc4C)c4c3n2[C@@H](c2ccccn2)CO4)C1 [Example 181B, (3S)-1-[(4S)-7-(3,5-dimethylisoxazol-4-yl)-4-pyridin-2-yl-4,5-dihydroimidazo[1,5,4-de][1,4]benzoxazin-2-yl]-N-methylpyrrolidin-3-amine] | < 1000 | –
13 | Cc1noc(C)c1-c1ccc2nc(N3CC[C@@H](NC(=O)OC(C)(C)C)C3)n3c2c1OC[C@@H]3c1ccccn1 [Example 182A, tert-butyl {(3R)-1-[(4S)-7-(3,5-dimethylisoxazol-4-yl)-4-pyridin-2-yl-4,5-dihydroimidazo[1,5,4-de][1,4]benzoxazin-2-yl]pyrrolidin-3-yl}carbamate] | < 1000 | –
14 | Cc1noc(C)c1-c1ccc2nc(N3CC[C@H](NC(=O)OC(C)(C)C)C3)n3c2c1OC[C@@H]3c1ccccn1 [Example 182B, tert-butyl {(3S)-1-[(4S)-7-(3,5-dimethylisoxazol-4-yl)-4-pyridin-2-yl-4,5-dihydroimidazo[1,5,4-de][1,4]benzoxazin-2-yl]pyrrolidin-3-yl}carbamate] | < 1000 | –
15 | Cc1noc(C)c1-c1ccc2nc(N3CCN(CC4CC4)CC3)n3c2c1OC[C@@H]3c1ccccn1 [Example 183, (4S)-2-[4-(cyclopropylmethyl)piperazin-1-yl]-7-(3,5-dimethylisoxazol-4-yl)-4-pyridin-2-yl-4,5-dihydroimidazo[1,5,4-de][1,4]benzoxazine] | < 1000 | –
16 | COCCN1CCN(c2nc3ccc(-c4c(C)noc4C)c4c3n2[C@@H](c2ccccn2)CO4)CC1 [Example 184, (4S)-7-(3,5-dimethylisoxazol-4-yl)-2-[4-(2-methoxyethyl)piperazin-1-yl]-4-pyridin-2-yl-4,5-dihydroimidazo[1,5,4-de][1,4]benzoxazine] | < 1000 | –
17 | Cc1noc(C)c1-c1ccc2nc(N(C)CCO)n3c2c1OCC3c1ccccn1 (centres unmarked) [Example 185, 2-[[7-(3,5-dimethylisoxazol-4-yl)-4-pyridin-2-yl-4,5-dihydroimidazo[1,5,4-de][1,4]benzoxazin-2-yl](methyl)amino]ethanol] | – | < 1000
18 | CNc1nc2ccc(-c3c(C)noc3C)c3c2n1C(c1ccccn1)CO3 (centres unmarked) [Example 186, 7-(3,5-dimethylisoxazol-4-yl)-N-methyl-4-pyridin-2-yl-4,5-dihydroimidazo[1,5,4-de][1,4]benzoxazin-2-amine] | < 1000 | –
19 | Cc1noc(C)c1-c1ccc2nc(N(C)C)n3c2c1OCC3c1ccccn1 (centres unmarked) [Example 187, 7-(3,5-dimethylisoxazol-4-yl)-N,N-dimethyl-4-pyridin-2-yl-4,5-dihydroimidazo[1,5,4-de][1,4]benzoxazin-2-amine] | < 1000 | –
20 | Cc1noc(C)c1-c1ccc2nc(N3CCC(C(N)=O)CC3)n3c2c1OC[C@@H]3c1ccccn1 [Example 188, 1-[(4S)-7-(3,5-dimethylisoxazol-4-yl)-4-pyridin-2-yl-4,5-dihydroimidazo[1,5,4-de][1,4]benzoxazin-2-yl]piperidine-4-carboxamide] | < 1000 | –
21 | CNC(=O)C1CCN(c2nc3ccc(-c4c(C)noc4C)c4c3n2[C@@H](c2ccccn2)CO4)CC1 [Example 189, 1-[(4S)-7-(3,5-dimethylisoxazol-4-yl)-4-pyridin-2-yl-4,5-dihydroimidazo[1,5,4-de][1,4]benzoxazin-2-yl]-N-methylpiperidine-4-carboxamide] | < 1000 | –
22 | CC(=O)NC1CCN(c2nc3ccc(-c4c(C)noc4C)c4c3n2[C@@H](c2ccccn2)CO4)CC1 [Example 190, N-{1-[(4S)-7-(3,5-dimethylisoxazol-4-yl)-4-pyridin-2-yl-4,5-dihydroimidazo[1,5,4-de][1,4]benzoxazin-2-yl]piperidin-4-yl}acetamide] | < 1000 | –
23 | Cc1noc(C)c1-c1ccc2nc(N3CCN(CC(N)=O)CC3)n3c2c1OC[C@@H]3c1ccccn1 [Example 191, 2-{4-[(4S)-7-(3,5-dimethylisoxazol-4-yl)-4-pyridin-2-yl-4,5-dihydroimidazo[1,5,4-de][1,4]benzoxazin-2-yl]piperazin-1-yl}acetamide] | < 1000 | –
24 | CCN1CCN(c2nc3ccc(-c4c(C)noc4C)c4c3n2[C@@H](c2ccccn2)CO4)CC1 [Example 192, (4S)-7-(3,5-dimethylisoxazol-4-yl)-2-(4-ethylpiperazin-1-yl)-4-pyridin-2-yl-4,5-dihydroimidazo[1,5,4-de][1,4]benzoxazine] | < 1000 | –
25 | Cc1noc(C)c1-c1ccc2nc(N3CCN4CCC[C@H]4C3)n3c2c1OC[C@@H]3c1ccccn1 [Example 193A, (4S)-7-(3,5-dimethylisoxazol-4-yl)-2-[(8aS)-hexahydropyrrolo[1,2-a]pyrazin-2(1H)-yl]-4-pyridin-2-yl-4,5-dihydroimidazo[1,5,4-de][1,4]benzoxazine] | < 1000 | –
26 | Cc1noc(C)c1-c1ccc2nc(N3CCN4CCC[C@@H]4C3)n3c2c1OC[C@@H]3c1ccccn1 [Example 193B, (4S)-7-(3,5-dimethylisoxazol-4-yl)-2-[(8aR)-hexahydropyrrolo[1,2-a]pyrazin-2(1H)-yl]-4-pyridin-2-yl-4,5-dihydroimidazo[1,5,4-de][1,4]benzoxazine] | < 1000 | –
27 | Cc1noc(C)c1-c1ccc2nc(N3CCC(C)(O)CC3)n3c2c1OC[C@@H]3c1ccccn1 [Example 194, 1-[(4S)-7-(3,5-dimethylisoxazol-4-yl)-4-pyridin-2-yl-4,5-dihydroimidazo[1,5,4-de][1,4]benzoxazin-2-yl]-4-methylpiperidin-4-ol] | < 1000 | –
28 | Cc1noc(C)c1-c1ccc2nc(N3CCNC(=O)C3C)n3c2c1OC[C@@H]3c1ccccn1 (stereo partly drawn) [Example 195, 4-[(4S)-7-(3,5-dimethylisoxazol-4-yl)-4-pyridin-2-yl-4,5-dihydroimidazo[1,5,4-de][1,4]benzoxazin-2-yl]-3-methylpiperazin-2-one] | < 1000 | –
29 | Cc1noc(C)c1-c1ccc2nc(N3CC(NC(=O)OC(C)(C)C)C3)n3c2c1OC[C@@H]3c1ccccn1 [Example 196, tert-butyl {1-[(4S)-7-(3,5-dimethylisoxazol-4-yl)-4-pyridin-2-yl-4,5-dihydroimidazo[1,5,4-de][1,4]benzoxazin-2-yl]azetidin-3-yl}carbamate] | < 1000 | –
